From paper PMC11470957, “Principles of paralog-specific targeted protein degradation engaging the C-degron E3 KLHDC2” (Nature Communications, 2024)
Read-outs that look alike come from different tables or passages of the source.

Target: BRD3 (Homo sapiens, UniProt Q15059)
Experiment: Western blot of BRD3 levels after cellular dosing
Conditions: for remaining activity at 2.19382 µM: Log SJ46420 (uM) 2.19382; for remaining activity at 2.19382 µM / remaining activity at 2.49485 µM / remaining activity at 2.79588 µM / remaining activity at 3.09691 µM / remaining activity at 3.39794 µM: Rep1, Rep2; for remaining activity at 2.49485 µM: Log SJ46420 (uM) 2.49485; for remaining activity at 2.79588 µM: Log SJ46420 (uM) 2.79588; for remaining activity at 3.09691 µM: Log SJ46420 (uM) 3.09691; for remaining activity at 3.39794 µM: Log SJ46420 (uM) 3.39794
[1] = 22Rv1, read-out: BRD3 (DMSO = 100), 22Rv1 cells
[2] = PC-3, read-out: BRD3 (DMSO = 100), PC3 cells

BRD3, sequence (Q15059 whole entry): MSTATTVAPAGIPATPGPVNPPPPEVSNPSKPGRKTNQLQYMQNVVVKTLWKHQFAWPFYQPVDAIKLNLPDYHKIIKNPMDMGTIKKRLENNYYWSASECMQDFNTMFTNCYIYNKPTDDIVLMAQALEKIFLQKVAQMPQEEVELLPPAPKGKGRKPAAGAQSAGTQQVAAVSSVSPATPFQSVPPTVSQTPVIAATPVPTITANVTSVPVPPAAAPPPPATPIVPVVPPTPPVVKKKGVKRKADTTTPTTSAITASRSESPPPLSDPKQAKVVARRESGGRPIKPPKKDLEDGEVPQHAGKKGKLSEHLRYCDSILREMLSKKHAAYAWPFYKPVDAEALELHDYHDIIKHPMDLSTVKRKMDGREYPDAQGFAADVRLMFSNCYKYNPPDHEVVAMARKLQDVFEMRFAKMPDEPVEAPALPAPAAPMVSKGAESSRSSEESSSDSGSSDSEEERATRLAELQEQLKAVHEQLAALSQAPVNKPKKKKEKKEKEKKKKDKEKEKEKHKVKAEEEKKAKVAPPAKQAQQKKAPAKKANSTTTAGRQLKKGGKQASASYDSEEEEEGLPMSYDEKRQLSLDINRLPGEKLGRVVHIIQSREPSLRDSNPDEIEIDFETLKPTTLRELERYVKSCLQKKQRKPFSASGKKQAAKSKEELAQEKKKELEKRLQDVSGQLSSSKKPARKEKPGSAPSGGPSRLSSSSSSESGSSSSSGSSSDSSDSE

## COC(=O)CNC(=O)Cc1csc(-c2ccc3cccc(OCCN4CCN(C(=O)C[C@@H]5N=C(c6ccc(Cl)cc6)c6c(sc(C)c6C)-n6c(C)nnc65)CC4)c3c2)n1 [SJ46420]
22Rv1, 24 h, read-out: BRD3 level relative to DMSO (100%), 22Rv1, 0.31µM, 24 h, Fig S6f
  remaining activity at 0.31 µM: 54 ± 11%
22Rv1, 24 h, read-out: BRD3 level relative to DMSO (100%), 22Rv1, 0.63µM, 24 h, Fig S6f
  remaining activity at 0.63 µM: 45 ± 4.6%
22Rv1, 24 h, read-out: BRD3 level relative to DMSO (100%), 22Rv1, 1.3µM, 24 h, Fig S6f
  remaining activity at 1.3 µM: 27 ± 2.2%
22Rv1, 24 h, read-out: BRD3 level relative to DMSO (100%), 22Rv1, 2.5µM, 24 h, Fig S6f
  remaining activity at 2.5 µM: 21 ± 3.7%
22Rv1, 24 h, read-out: BRD3 level relative to DMSO (100%), 22Rv1, 5µM, 24 h, Fig S6f
  remaining activity at 5 µM: 4.3 ± 3.5%
22Rv1, 24 h, read-out: BRD3 level relative to DMSO (100%), 22Rv1, 10µM, 24 h, Fig S6f
  remaining activity at 10 µM: 2.9 ± 2.8%
[1]
  remaining activity at 2.19382 µM: 71.3%
  remaining activity at 2.49485 µM: 46.9%
  remaining activity at 2.79588 µM: 42.3%
  remaining activity at 3.09691 µM: 29.2%
  remaining activity at 3.39794 µM: 23.9%
22Rv1, read-out: BRD3 Dmax, 22Rv1, 24 h dose
  Dmax: 93.7%
22Rv1, read-out: BRD3 level, Western blot quantification (DMSO = 100), Fig S6f, 22RV1 KO/rescue Dose Response, 0.156 uM
  remaining activity at 0.156 µM: 71.3%
22Rv1, read-out: BRD3 level, Western blot quantification (DMSO = 100), Fig S6f, 22RV1 KO/rescue Dose Response, 0.313 uM
  remaining activity at 0.313 µM: 46.9%
22Rv1, read-out: BRD3 level, Western blot quantification (DMSO = 100), Fig S6f, 22RV1 KO/rescue Dose Response, 0.625 uM
  remaining activity at 0.625 µM: 42.3%
22Rv1, read-out: BRD3 level, Western blot quantification (DMSO = 100), Fig S6f, 22RV1 KO/rescue Dose Response, 1.25 uM
  remaining activity at 1.25 µM: 29.2%
22Rv1, read-out: BRD3 level, Western blot quantification (DMSO = 100), Fig S6f, 22RV1 KO/rescue Dose Response, 2.5 uM
  remaining activity at 2.5 µM: 23.9%
24 h, read-out: BRD3 level relative to DMSO (100%), PC3, 0.16µM, 24 h, Fig S6e
  remaining activity at 0.16 µM: 107 ± 8.6%
24 h, read-out: BRD3 level relative to DMSO (100%), PC3, 0.31µM, 24 h, Fig S6e
  remaining activity at 0.31 µM: 72 ± 3.2%
24 h, read-out: BRD3 level relative to DMSO (100%), PC3, 0.63µM, 24 h, Fig S6e
  remaining activity at 0.63 µM: 32 ± 5%
24 h, read-out: BRD3 level relative to DMSO (100%), PC3, 1.3µM, 24 h, Fig S6e
  remaining activity at 1.3 µM: 13 ± 2.8%
24 h, read-out: BRD3 level relative to DMSO (100%), PC3, 2.5µM, 24 h, Fig S6e
  remaining activity at 2.5 µM: 7.3 ± 2.7%
24 h, read-out: BRD3 level relative to DMSO (100%), PC3, 5µM, 24 h, Fig S6e
  remaining activity at 5 µM: 4.8 ± 2.4%
24 h, read-out: BRD3 level relative to DMSO (100%), PC3, 10µM, 24 h, Fig S6e
  remaining activity at 10 µM: 1.8 ± 2.1%
24 h dose, Fig 6b
  BRD3 levels in U2OS cell line with KLHDC2 knocked out: unaffected
AU565, 8 h, read-out: BRD3 level relative to DMSO (100%), AU565, 0.2µM, 8 h, Fig S6c
  remaining activity at 0.2 µM: 56 ± 3.4%
AU565, 8 h, read-out: BRD3 level relative to DMSO (100%), AU565, 1µM, 8 h, Fig S6c
  remaining activity at 1 µM: 29 ± 2.4%
AU565, 8 h, read-out: BRD3 level relative to DMSO (100%), AU565, 5µM, 8 h, Fig S6c
  remaining activity at 5 µM: 3.9 ± 1.1%
AU565, read-out: BRD3 level, Western blot quantification (DMSO = 100), Fig S6c, AU565 Cells, 0.2 uM
  remaining activity at 0.2 µM: 58.8%
AU565, read-out: BRD3 level, Western blot quantification (DMSO = 100), Fig S6c, AU565 Cells, 1 uM
  remaining activity at 1 µM: 30.4%
AU565, read-out: BRD3 level, Western blot quantification (DMSO = 100), Fig S6c, AU565 Cells, 5 uM
  remaining activity at 5 µM: 4.75%
HEK-293T, 24 h, read-out: BRD3 level relative to DMSO (100%), 293T, 2.5µM, 24 h, Fig S6a
  remaining activity at 2.5 µM: 44 ± 2.3%
HEK-293T, 24 h, read-out: BRD3 level relative to DMSO (100%), 293T, 5µM, 24 h, Fig S6a
  remaining activity at 5 µM: 18 ± 3.7%
HEK-293T, read-out: BRD3 level, Western blot quantification (DMSO = 100), Fig S6a, 293T cells, 2.5 uM
  remaining activity at 2.5 µM: 46%
HEK-293T, read-out: BRD3 level, Western blot quantification (DMSO = 100), Fig S6a, 293T cells, 5 uM
  remaining activity at 5 µM: 20.9%
MDA-MB-468, 24 h, read-out: BRD3 level relative to DMSO (100%), MDA-MB-468, 2.5µM, 24 h, Fig S6b
  remaining activity at 2.5 µM: 41 ± 3.3%
MDA-MB-468, 24 h, read-out: BRD3 level relative to DMSO (100%), MDA-MB-468, 5µM, 24 h, Fig S6b
  remaining activity at 5 µM: 20 ± 2.9%
MDA-MB-468, 24 h, read-out: BRD3 level relative to DMSO (100%), MDA-MB-468, 10µM, 24 h, Fig S6b
  remaining activity at 10 µM: 15 ± 2.2%
MDA-MB-468, read-out: BRD3 level, Western blot quantification (DMSO = 100), Fig S6b, MDA-MB468 Cells, 2 uM
  remaining activity at 2 µM: 39.3%
MDA-MB-468, read-out: BRD3 level, Western blot quantification (DMSO = 100), Fig S6b, MDA-MB468 Cells, 5 uM
  remaining activity at 5 µM: 17.8%
MDA-MB-468, read-out: BRD3 level, Western blot quantification (DMSO = 100), Fig S6b, MDA-MB468 Cells, 10 uM
  remaining activity at 10 µM: 13.8%
PC3
  selectivity for BRD3 over BRD4 (DC50): ~ 28 fold
[2]
  remaining activity at 2.19382 µM: 108%
  remaining activity at 2.49485 µM: 70.7%
  remaining activity at 2.79588 µM: 29.3%
  remaining activity at 3.09691 µM: 11.3%
  remaining activity at 3.39794 µM: 5.44%
SK-BR-3, 2 h, read-out: BRD3 level relative to DMSO (100%), SKBR3, 1µM, 2hr, Fig S6g
  remaining activity at 1 µM: 49 ± 6.7%
SK-BR-3, 2 h, read-out: BRD3 level relative to DMSO (100%), SKBR3, 5µM, 2hr, Fig S6g
  remaining activity at 5 µM: 35 ± 5.2%
SK-BR-3, 2 h, read-out: BRD3 level, Western blot quantification (DMSO = 100), Fig S6g, SKBR3 Time course, 1 uM, 2hr
  remaining activity at 1 µM: 54.5%
SK-BR-3, 2 h, read-out: BRD3 level, Western blot quantification (DMSO = 100), Fig S6g, SKBR3 Time course, 5 uM, 2hr
  remaining activity at 5 µM: 39.4%
SK-BR-3, 4 h, read-out: BRD3 level relative to DMSO (100%), SKBR3, 1µM, 4hr, Fig S6g
  remaining activity at 1 µM: 36 ± 6.9%
SK-BR-3, 4 h, read-out: BRD3 level relative to DMSO (100%), SKBR3, 5µM, 4hr, Fig S6g
  remaining activity at 5 µM: 13 ± 2.9%
SK-BR-3, 4 h, read-out: BRD3 level relative to DMSO (100%), SKBR3, 5µM, 4hr, Fig S6j
  remaining activity at 5 µM: 31 ± 5.6%
SK-BR-3, 4 h, read-out: BRD3 level, Western blot quantification (DMSO = 100), Fig S6g, SKBR3 Time course, 1 uM, 4hr
  remaining activity at 1 µM: 41.9%
SK-BR-3, 4 h, read-out: BRD3 level, Western blot quantification (DMSO = 100), Fig S6g, SKBR3 Time course, 5 uM, 4hr
  remaining activity at 5 µM: 15.1%
SK-BR-3, 8 h, read-out: BRD3 level relative to DMSO (100%), SKBR3, 1µM, 8hr, Fig S6g
  remaining activity at 1 µM: 32 ± 3.5%
SK-BR-3, 8 h, read-out: BRD3 level relative to DMSO (100%), SKBR3, 5µM, 8hr, Fig S6g
  remaining activity at 5 µM: 8.8 ± 2.6%
